Assay [1] addresses 5-hydroxytryptamine receptor 2A (Homo sapiens) (UniProt P28223). Briefly: Displacement of [3H]Ketanserin from human 5HT2A receptor expressed in HEK293 cells at 10 uM. Format: cell-based.
For assay [2], the target named is T1, D(1A) dopamine receptor (Homo sapiens, UniProt P21728). Briefly: Displacement of [3H]SCH23390 from human dopamine D1 receptor expressed in HEK293 cells at 10 uM. Format: cell-based.
For assay [3], the target named is T2, D(2) dopamine receptor (Homo sapiens, UniProt P14416). Put plainly: Displacement of [3H]Spiprone from human dopamine D2 receptor expressed in HEK293 cells at 10 uM. The class given is cell-based.
The target of assay [4] is T3, 5-hydroxytryptamine receptor 1A (Homo sapiens) (UniProt P08908).
T3 sequence (whole entry): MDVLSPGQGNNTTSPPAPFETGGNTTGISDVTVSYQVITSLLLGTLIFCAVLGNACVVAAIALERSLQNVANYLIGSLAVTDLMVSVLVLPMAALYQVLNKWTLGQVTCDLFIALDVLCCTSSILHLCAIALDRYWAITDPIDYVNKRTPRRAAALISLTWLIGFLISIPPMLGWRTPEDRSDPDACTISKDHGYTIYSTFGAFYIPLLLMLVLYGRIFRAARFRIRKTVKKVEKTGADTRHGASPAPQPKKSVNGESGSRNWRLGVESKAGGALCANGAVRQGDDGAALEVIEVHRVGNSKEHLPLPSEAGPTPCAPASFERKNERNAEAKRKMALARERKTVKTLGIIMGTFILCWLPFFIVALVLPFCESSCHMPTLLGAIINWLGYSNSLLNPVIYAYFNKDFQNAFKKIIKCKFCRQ
Put plainly: Displacement of [3H]-8-OH-DPAT from human 5HT1A receptor expressed in HEK293 cells at 10 uM. Format: cell-based.

Assay [5] has as its target T1, D(1A) dopamine receptor. Put plainly: Antagonist activity at dopamine D1 receptor assessed as inhibition of [35S]GTPgammaS binding in cell-based assay relative to control. The class given is functional.
Assay [6] deals with T1, D(1A) dopamine receptor. Briefly: Displacement of [3H]SCH23390 from human dopamine D1 receptor expressed in HEK293 cells. Format: cell-based.
Assay [7] has as its target T4, 5-hydroxytryptamine receptor 1A (Homo sapiens, UniProt P08908).
T4 sequence (P08908 whole entry): T3 sequence (whole entry)
Briefly: Displacement of [3H]-8-OH-DPAT from human 5HT1A receptor expressed in HEK293 cells. The class given is cell-based.

Assay [8] addresses T2, D(2) dopamine receptor. Put plainly: Displacement of [3H]Spiprone from human dopamine D2 receptor expressed in HEK293 cells. The class given is cell-based.
For assay [9], the target named is T1, D(1A) dopamine receptor. Put plainly: Antagonist activity at dopamine D1 receptor assessed as inhibition of [35S]GTPgammaS binding in cell-based assay. Format: functional.
Assay [10] addresses D(1A) dopamine receptor (Rattus norvegicus, UniProt P18901). Put plainly: Agonist activity at D1 receptor in rat striatum assessed as synaptosomal adenylate cyclase activity. The class given is functional, tissue-based.
Assay [11] addresses T1, D(1A) dopamine receptor. Briefly: Agonist activity at dopamine D1 receptor assessed as [35S]GTPgammaS binding in cell-based assay relative to control. The class given is functional.

The values that follow come from ChEMBL document CHEMBL2057072, “Design, synthesis, and pharmacological evaluation of novel tetrahydroprotoberberine derivatives: selective inhibitors of dopamine D₁ receptor” (Bioorg Med Chem, 2012).

T2 sequence (P14416 whole entry): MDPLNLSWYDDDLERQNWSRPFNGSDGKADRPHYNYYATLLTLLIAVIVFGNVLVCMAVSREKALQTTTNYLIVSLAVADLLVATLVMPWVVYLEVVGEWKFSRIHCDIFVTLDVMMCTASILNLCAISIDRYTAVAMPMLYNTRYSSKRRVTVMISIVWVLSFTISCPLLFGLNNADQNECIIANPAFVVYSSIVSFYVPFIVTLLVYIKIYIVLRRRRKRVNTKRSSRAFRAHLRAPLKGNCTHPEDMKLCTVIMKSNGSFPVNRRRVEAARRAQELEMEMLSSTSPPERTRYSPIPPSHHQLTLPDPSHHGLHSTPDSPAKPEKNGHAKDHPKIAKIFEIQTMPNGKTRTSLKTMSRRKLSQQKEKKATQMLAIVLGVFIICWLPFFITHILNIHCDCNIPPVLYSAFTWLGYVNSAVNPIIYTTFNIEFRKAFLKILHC
5-hydroxytryptamine receptor 2A (Homo sapiens), sequence (P28223 whole entry): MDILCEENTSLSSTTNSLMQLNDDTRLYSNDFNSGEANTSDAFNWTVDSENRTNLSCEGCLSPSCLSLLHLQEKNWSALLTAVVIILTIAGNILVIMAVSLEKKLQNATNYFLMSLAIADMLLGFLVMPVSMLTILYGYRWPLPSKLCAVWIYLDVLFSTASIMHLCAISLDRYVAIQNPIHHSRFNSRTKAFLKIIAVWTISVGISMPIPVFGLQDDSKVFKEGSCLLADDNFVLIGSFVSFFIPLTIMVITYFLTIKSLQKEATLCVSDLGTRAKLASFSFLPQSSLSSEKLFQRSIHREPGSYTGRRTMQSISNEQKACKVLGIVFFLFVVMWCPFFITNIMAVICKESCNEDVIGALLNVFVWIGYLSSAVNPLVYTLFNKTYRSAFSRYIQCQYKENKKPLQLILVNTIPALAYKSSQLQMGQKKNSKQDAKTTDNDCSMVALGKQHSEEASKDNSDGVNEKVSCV
T1 sequence (P21728 whole entry): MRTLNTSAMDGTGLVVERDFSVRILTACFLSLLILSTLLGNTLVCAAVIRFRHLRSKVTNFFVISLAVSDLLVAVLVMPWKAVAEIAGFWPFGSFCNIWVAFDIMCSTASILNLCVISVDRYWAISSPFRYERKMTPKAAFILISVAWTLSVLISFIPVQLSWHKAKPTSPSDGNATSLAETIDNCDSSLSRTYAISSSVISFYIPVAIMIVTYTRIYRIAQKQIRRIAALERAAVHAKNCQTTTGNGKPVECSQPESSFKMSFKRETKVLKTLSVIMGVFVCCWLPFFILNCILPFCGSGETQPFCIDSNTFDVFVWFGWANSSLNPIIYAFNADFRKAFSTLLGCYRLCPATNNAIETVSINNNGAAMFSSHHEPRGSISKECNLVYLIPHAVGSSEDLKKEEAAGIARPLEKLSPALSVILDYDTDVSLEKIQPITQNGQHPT
D(1A) dopamine receptor (Rattus norvegicus, UniProt P18901), sequence (P18901 whole entry): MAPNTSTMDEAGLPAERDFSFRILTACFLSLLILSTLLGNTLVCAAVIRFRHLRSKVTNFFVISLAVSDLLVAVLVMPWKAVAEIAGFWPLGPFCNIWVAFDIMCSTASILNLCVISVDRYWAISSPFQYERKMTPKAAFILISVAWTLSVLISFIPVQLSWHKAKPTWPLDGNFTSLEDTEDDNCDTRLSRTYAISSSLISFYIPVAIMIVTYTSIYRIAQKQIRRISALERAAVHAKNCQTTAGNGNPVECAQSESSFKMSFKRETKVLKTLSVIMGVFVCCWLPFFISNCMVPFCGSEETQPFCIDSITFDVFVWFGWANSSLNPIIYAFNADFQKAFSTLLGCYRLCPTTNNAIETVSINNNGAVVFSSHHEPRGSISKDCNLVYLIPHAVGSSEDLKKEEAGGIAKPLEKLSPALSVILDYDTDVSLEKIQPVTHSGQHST

Turning to `COc1ccc2c(c1)C[C@H]1c3cc4c(cc3CCN1C2)OCO4`, the inhibition in assay [1] is 20.8%; on D(1A) dopamine receptor [2], 83.2%; on D(2) dopamine receptor [3], 22.7%; in [4] it was 5.48%.
On to `CN1CCc2cc(Cl)c(O)cc2[C@@H](c2ccccc2)C1`, for which the Imax on D(1A) dopamine receptor [5] came out at 80%.
Turning to `COc1cc2c(cc1OC)[C@@H]1Cc3c(CO)c(OC)cc(OC)c3CN1CC2`, the results for the inhibition (in [1]; at D(2) dopamine receptor [3]) were 24.1% and 39.5%, respectively. The compound further yielded an IC50 at D(1A) dopamine receptor [6] of 114 nM. The results for the Ki (on D(1A) dopamine receptor [6]; in [7]) were 64.1 nM and 730 nM, respectively.
For `COc1ccc2c(c1)C[C@H]1c3cc(OCc4ccccc4)c(OC)cc3CCN1C2`, the inhibition was 13.5% in [1], 86% at D(1A) dopamine receptor [2], 36% on D(2) dopamine receptor [3] and 37.3% in assay [4].
`COc1ccc2c(c1)C[C@H]1c3cc(O)c(OC)cc3CCN1C2`: the inhibition in assay [1] was 68.7%; in assay [4] it was 65.6%. Moreover, the IC50 worked out at 68.9 nM at D(1A) dopamine receptor [6] and 873 nM at D(2) dopamine receptor [8]. Moreover, the Ki on D(1A) dopamine receptor [6] came to 35.8 nM; on D(2) dopamine receptor [8], 347 nM.
As to `COc1cc2c(c(OC)c1)CN1CCc3cc(OC)cc(OC)c3[C@@H]1C2`, the figures for the inhibition (in [1]; on D(2) dopamine receptor [3]; in [4]) were 25%, 81.9% and 61.7%, respectively. Besides, the IC50 at D(1A) dopamine receptor [6] is 14.3 nM; on D(1A) dopamine receptor [9], 23300 nM. Moreover, the Ki at D(1A) dopamine receptor [6] stood at 7.97 nM. In addition, the Imax on D(1A) dopamine receptor [5] amounted to 94.2%.
On to `COc1cc2c(c(OC)c1)CN1CCc3cc(OC)c(O)c(OC)c3[C@@H]1C2`, for which the results for the inhibition (in assay [1]; on D(2) dopamine receptor [3]; in assay [4]) were 51.6%, 58.8% and 44.9%, respectively. This compound also gave an IC50 on D(1A) dopamine receptor [6] of 98.1 nM. This compound also yielded a Ki at D(1A) dopamine receptor [6] of 52.3 nM.
On to `COc1cc2c(c(OC)c1)CN1CCc3cc(OC)c(OC)c(OC)c3[C@@H]1C2`, for which the inhibition was found to be 48.8% in [1], 51.7% on D(2) dopamine receptor [3] and 66.9% in assay [4]. Besides, the IC50 came out at 45.4 nM on D(1A) dopamine receptor [6] and 11800 nM on D(1A) dopamine receptor [9]. Moreover, the affinity on D(1A) dopamine receptor [6], expressed as Ki, was 23.8 nM. Further, the Imax on D(1A) dopamine receptor [5] was found to be 82.5%.
For the compound `COc1cc2c(cc1O)[C@@H]1Cc3ccc(O)c(OC)c3CN1CC2` [STEPHOLIDINE], the results for the inhibition in [1] and in assay [4] were 45.6% and 89.3%, respectively. The EC50 at D(1A) dopamine receptor [10] stood at 41100 nM. In addition, the values for the IC50 at D(1A) dopamine receptor [6] and at D(2) dopamine receptor [8] were 12.3 nM and 105 nM, respectively. For the same compound, the Ki worked out at 6.23 nM at D(1A) dopamine receptor [6] and 56.2 nM at D(2) dopamine receptor [8].
On to `COc1cc2c(c(OC)c1OC)[C@@H]1Cc3cc4c(cc3CN1CC2)OCO4`, for which the inhibition in [1] turned out to be 72.7%; on D(1A) dopamine receptor [2], 43.4%; at D(2) dopamine receptor [3], 70.7%; in [4], 70.3%.
The matching figures for `COc1cc(OC)c2c(c1CO)C[C@H]1c3c(cc(OC)c(OC)c3OC)CCN1C2`: 59.7%, 7.37%, 47.2% and 67.4%.
For the compound `Oc1cc2c(cc1O)C(c1ccccc1)CNCC2` (stereo not given), the Emax on D(1A) dopamine receptor [11] was 100%.
On to `COc1cc(OC)c2c(c1CO)CCN1Cc3cc4c(cc3C[C@@H]21)OCO4`, for which the inhibition in [1] was found to be 16.9%; on D(1A) dopamine receptor [2], 17.4%.
As for `COc1cc2c(c(OC)c1)CN1CCc3cc(OC)c(OCc4ccccc4)c(OC)c3[C@@H]1C2`, the inhibition in assay [1] is 69.1%; at D(1A) dopamine receptor [2] it was 59.3%; at D(2) dopamine receptor [3], 54.2%; in [4], 43.7%.
Consider `COc1cc2c(c(OC)c1)CN1CCc3cc(OC)c(O)cc3[C@@H]1C2`, for which the figures for the inhibition (in assay [1]; on D(2) dopamine receptor [3]; in [4]) were 32.4%, 83.3% and 56.9%, respectively. For the same compound, the IC50 on D(1A) dopamine receptor [6] came out at 4.86 nM; on D(1A) dopamine receptor [9], 1380 nM. On D(1A) dopamine receptor [5], the Imax is 94.3%.
With `COc1cc(OC)c2c(c1CO)C[C@H]1c3cc4c(cc3CCN1C2)OCO4`, the results for the inhibition (in assay [1]; on D(2) dopamine receptor [3]) were 56.2% and 41.8%, respectively. The IC50 on D(1A) dopamine receptor [6] amounted to 324 nM. Also, the Ki stood at 182 nM on D(1A) dopamine receptor [6] and 600 nM in assay [7].
For the compound `COc1cc2c(cc1OC)[C@@H]1Cc3cc(C)cc(C)c3CN1CC2`, the inhibition in [1] stood at 36.5%; in [4], 54.8%. For the same compound, the figures for the IC50 on D(1A) dopamine receptor [6] and at D(2) dopamine receptor [8] were 684 nM and 1160 nM, respectively. In addition, the Ki at D(1A) dopamine receptor [6] came out at 338 nM; at D(2) dopamine receptor [8] it was 224 nM.
Regarding `COc1cc2c(c(OC)c1)CN1CCc3cc4c(cc3[C@@H]1C2)OCO4`, the inhibition in assay [1] is 31.3%; at D(2) dopamine receptor [3], 1.02%; in [4] it was 57.6%. The same compound yielded an IC50 on D(1A) dopamine receptor [6] of 142 nM. The compound also displayed a Ki at D(1A) dopamine receptor [6] of 74.5 nM.
Consider `COc1ccc2c(c1)C[C@H]1c3cc(OC)c(OC)cc3CCN1C2`, for which the inhibition in assay [1] came to 33.5%; at D(1A) dopamine receptor [2] it was 81.9%; at D(2) dopamine receptor [3], 10.2%; in assay [4], 57.4%.
As to `COc1cc2c(cc1OC)C1Cc3cc(C)cc(C)c3CN1CC2` (racemic), the inhibition in [1] is 19.9%; at D(2) dopamine receptor [3] it was 77.4%; in [4], 28.4%. Further, the IC50 at D(1A) dopamine receptor [6] was 2920 nM. Further, the affinity at D(1A) dopamine receptor [6] corresponds to a Ki of 1440 nM.
Regarding `COc1ccc(OC)c2c1C[C@H]1c3c(OC)cc(OC)c(CO)c3CCN1C2`, the inhibition in [1] was 25.3%; on D(1A) dopamine receptor [2], 48.8%; in [4], 33.1%.
Consider `COc1cc2c(cc1O)[C@@H]1Cc3c(CO)c(OC)cc(OC)c3CN1CC2`, for which the inhibition in assay [1] came out at 18.4%; in assay [4], 80.9%. Besides, the results for the IC50 on D(1A) dopamine receptor [6] and on D(2) dopamine receptor [8] were 30.7 nM and 514 nM, respectively. The Ki worked out at 17.3 nM at D(1A) dopamine receptor [6] and 147 nM on D(2) dopamine receptor [8].
For `COc1ccc2c(c1)C[C@H]1c3c(OC)cc(OC)c(CO)c3CCN1C2`, the results for the inhibition (in assay [1]; on D(1A) dopamine receptor [2]; in assay [4]) were 21.4%, 56% and 1.34%, respectively.
Take `COc1cc2c(c(OC)c1)CN1CCc3cc(OC)c(OC)cc3[C@@H]1C2`: the figures for the inhibition (in assay [1]; at D(2) dopamine receptor [3]; in [4]) were 17.2%, 3.48% and 66.9%, respectively. The IC50 at D(1A) dopamine receptor [6] stood at 189 nM. In addition, the Ki on D(1A) dopamine receptor [6] was 106 nM.
Regarding `COc1cc2c(cc1O)[C@@H]1Cc3cc(C)cc(C)c3CN1CC2`, the figures for the inhibition in assay [1] and in assay [4] were 27.1% and 74.5%, respectively. Further, the IC50 on D(1A) dopamine receptor [6] stood at 56.4 nM; at D(2) dopamine receptor [8], 456 nM. Further, the Ki amounted to 28.9 nM on D(1A) dopamine receptor [6] and 161 nM on D(2) dopamine receptor [8].
